In US20250345592A1, “BIODEGRADABLE ION PATCH AND METHOD FOR MANUFACTURING THE SAME” (SEOUL NATIONAL UNIVERSITY R&DB FOUNDATION, priority 2023, published 2025):

Type: in vitro ADME
Experimental: To enhance the absorption efficiency of the drug loaded in the provided gel, the current density applied to the ion patch was adjusted. Specifically, caffeine was added to the gelatin gel laminated on the anode of the ion patch, and various current densities of 50, 100, and 150 μA were applied. The amount of caffeine absorbed into the skin was then measured and compared.

Cn1c(=O)c2c(ncn2C)n(C)c1=O [caffeine]
amount of caffeine absorbed into the skin: highest in the order of 150, 50, and 100 μA current densities
